Laboratory results reported in patent publication US12564600B2, “System for enhancing therapeutic compliance of the anti-cancer compound E7766” (Eisai R&D Management Co., Ltd., priority 2019, dated 2026).
“Also recorded” adds a separate entry of the source.

Columns and labels:
OATP1B1 = molecular target: T1, OATP1B1 (Homo sapiens, UniProt Q9Y6L6); test: Uptake in HEK293 cells overexpressing OATP1B1; assay type: in vitro ADME
T1 construct: expressed in transfected cells; host or cells: HEK293-FT
T1 sequence (Q9Y6L6 1-691): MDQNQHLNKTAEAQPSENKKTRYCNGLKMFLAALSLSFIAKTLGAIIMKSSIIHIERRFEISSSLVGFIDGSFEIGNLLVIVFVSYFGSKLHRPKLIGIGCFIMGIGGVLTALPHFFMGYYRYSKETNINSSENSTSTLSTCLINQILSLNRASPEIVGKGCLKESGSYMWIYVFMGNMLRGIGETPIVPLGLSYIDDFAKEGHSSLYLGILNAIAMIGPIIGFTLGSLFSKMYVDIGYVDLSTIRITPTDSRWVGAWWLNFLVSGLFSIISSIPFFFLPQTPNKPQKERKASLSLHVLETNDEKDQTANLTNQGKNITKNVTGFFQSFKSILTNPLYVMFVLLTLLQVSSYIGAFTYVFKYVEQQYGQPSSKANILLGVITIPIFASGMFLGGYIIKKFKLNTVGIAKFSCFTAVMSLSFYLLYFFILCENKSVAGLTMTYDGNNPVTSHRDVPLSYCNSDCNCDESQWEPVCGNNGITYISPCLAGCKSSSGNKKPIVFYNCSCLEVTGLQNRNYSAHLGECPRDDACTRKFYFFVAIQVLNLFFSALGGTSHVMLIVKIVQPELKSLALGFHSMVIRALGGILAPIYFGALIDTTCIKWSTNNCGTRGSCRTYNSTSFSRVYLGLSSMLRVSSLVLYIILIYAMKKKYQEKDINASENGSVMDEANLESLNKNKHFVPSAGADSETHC
Protocol: TransportoCells™ (Corning, N.Y., USA) expressing OATP2B1, NTCP, and HEK293-FT cells stably transfected with the vector containing OATP1B1 cDNA or OATP1B3 cDNA or empty vector were grown in a Dulbecoo's modified Eagle's medium fortified with 10% fetal calf serum and 2 mmol/L sodium butyrate (for NTCP only) in a humidified incubator at 37° C. and 5% CO2. Cells were harvested at 90% confluence and then seeded in poly-D-lysine-coated 24-well 24 h prior to transporter assay. Cells were washed twice and pre-incubated with 200 μL of pre-warmed Krebs-Henseleit buffer. After pre-incubation, cells were incubated with 3 or 10 μmol L-1 of Compound 1 in presence or absence of 100 μmol L-1 of inhibitors (Rifamycin SV for OATP2B1, Troglitazone for NTCP, Rifamycin for OATP1B1 and OATP1B3). The transport reaction was terminated by aspirating the buffer from the wells at designated time. After washing three times with 200 μL of ice-cold Krebs-Henseleit buffer, the cells were lysed and the resulting cellular lysates were analyzed by LC-MS/MS.
Concentration-dependent uptake of Compound 1 via OATP1B1 and OATP1B3 were conducted with a concentration range of 0.25-100 μmol L-1 under linear uptake. All experiments were run in triplicates.

MRP2 = molecular target: T2, MRP2 (Homo sapiens, UniProt Q92887); test: Transport in MRP2 expressing membrane vesicles; assay type: in vitro ADME
T2 construct: purchased Corning
Protocol: To study the interaction of Compound 1 with hepatic efflux (ABC) transporters, TransportoCells™ membrane vesicles expressing BCRP, BSEP, MRP2, and control vector vesicles were pre-incubation with vesicle uptake buffer (47 mmol L-1 MOPs-Tris, 65 mmol L-1 KCl, 7 mmol L-1 MgCl2, pH 7.4 for BCRP; 47 mmol L-1 MOPs-Tris, 2.5 mmol L-1 GSH, 65 mmol L-1 KCl, 7 mmol L-1 MgCl2, pH 7.4 for MRP2; and 10 mmol L-1 HEPES-Tris, 100 mmol L-1 KNO3, 12.5 mmol L-1 Mg(NO3)2, and 50 mmol L-1 sucrose, pH 7.4 for BSEP) at 37° C. for 10 minutes. The transport was initiated by adding of pre-warmed 25 mmol/L MgATP, 3 μmol L-1 of Compound 1 in presence or absence of inhibitors (3 μmol L-1 of Novobioncin for BCRP, 100 μmol L-1 of MK-571 for MRP2, and 20 μmol L-1 of Ketoconazole for BSEP). The transport was terminated at designated time by adding 200 μL ice-cold vesicle uptake buffer. The complete content was then rapidly filtrated using multi-screen HTS vacuum manifold, followed by 5 washes and filtrations. The plate was allowed to dry completely and then placed onto a 96-well receiver plate. A 50 μL of elute solution (75% methanol containing the internal standard) was added into each assay well followed by centrifugation at 2000 rpm for 5 minutes. […] The yield samples from two centrifugation were combined and analyzed by LC-MS/MS. […]

T2 sequence (Q92887 whole entry): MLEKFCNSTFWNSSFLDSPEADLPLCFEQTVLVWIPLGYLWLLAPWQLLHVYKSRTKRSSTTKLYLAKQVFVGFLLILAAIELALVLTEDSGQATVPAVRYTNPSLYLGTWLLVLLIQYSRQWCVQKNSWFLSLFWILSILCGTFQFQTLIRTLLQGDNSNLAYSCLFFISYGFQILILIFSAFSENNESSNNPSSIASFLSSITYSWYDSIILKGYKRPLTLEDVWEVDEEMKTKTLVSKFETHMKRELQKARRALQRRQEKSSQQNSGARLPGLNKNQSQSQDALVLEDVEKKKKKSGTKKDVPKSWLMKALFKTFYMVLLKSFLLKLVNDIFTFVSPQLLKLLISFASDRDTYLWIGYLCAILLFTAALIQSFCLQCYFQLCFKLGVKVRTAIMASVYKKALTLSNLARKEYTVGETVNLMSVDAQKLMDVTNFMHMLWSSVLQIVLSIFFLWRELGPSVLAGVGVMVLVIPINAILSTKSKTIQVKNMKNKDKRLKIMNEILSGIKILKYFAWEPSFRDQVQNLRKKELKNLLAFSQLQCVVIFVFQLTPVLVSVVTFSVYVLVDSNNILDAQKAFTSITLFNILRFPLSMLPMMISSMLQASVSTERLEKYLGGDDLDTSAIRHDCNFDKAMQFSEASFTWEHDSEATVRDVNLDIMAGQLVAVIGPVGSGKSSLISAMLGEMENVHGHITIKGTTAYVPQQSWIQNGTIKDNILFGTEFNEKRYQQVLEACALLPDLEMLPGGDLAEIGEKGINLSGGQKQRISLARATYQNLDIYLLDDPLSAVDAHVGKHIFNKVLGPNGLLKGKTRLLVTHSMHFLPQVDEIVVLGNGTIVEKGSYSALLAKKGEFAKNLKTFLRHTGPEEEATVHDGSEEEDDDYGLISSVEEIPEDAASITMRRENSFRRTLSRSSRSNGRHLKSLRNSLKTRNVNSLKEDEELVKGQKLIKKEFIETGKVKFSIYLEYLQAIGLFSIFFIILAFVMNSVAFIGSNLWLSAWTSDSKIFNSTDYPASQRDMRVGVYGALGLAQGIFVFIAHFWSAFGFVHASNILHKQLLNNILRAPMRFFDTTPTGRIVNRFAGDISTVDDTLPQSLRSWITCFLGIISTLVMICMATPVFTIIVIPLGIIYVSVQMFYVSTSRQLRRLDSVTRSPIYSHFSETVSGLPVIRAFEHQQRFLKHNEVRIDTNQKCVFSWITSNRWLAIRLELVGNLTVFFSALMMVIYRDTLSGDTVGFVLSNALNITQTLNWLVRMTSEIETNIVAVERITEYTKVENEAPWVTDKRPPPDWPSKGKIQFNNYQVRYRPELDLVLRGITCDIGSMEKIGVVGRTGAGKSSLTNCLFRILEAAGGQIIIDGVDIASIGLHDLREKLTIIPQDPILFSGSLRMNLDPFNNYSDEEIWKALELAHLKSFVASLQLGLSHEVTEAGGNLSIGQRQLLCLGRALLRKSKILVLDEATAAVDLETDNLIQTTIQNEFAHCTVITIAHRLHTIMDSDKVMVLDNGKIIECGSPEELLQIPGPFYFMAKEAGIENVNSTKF

## O=[P@]1(S)OC[C@H]2O[C@@H]3[C@H](F)[C@@H]2O[P@](=O)(S)OC[C@H]2O[C@H]([C@H](F)[C@@H]2O1)n1cnc2c(ncnc21)NC/C=C/CNc1ncnc2c1ncn23 [Compound 1]
OATP1B1; HEK293 cells overexpressing human OATP1B1
  substrate of OATP1B1: responsible for hepatic uptake; also recorded: substrate
OATP1B1; Simcyp input parameter, Table 3
  Jmax (pmol/min/million cells), OATP1B1: 8.34 pmol/min/million cells
MRP2
  substrate of biliary efflux transporter MRP2: sequential biliary efflux; also recorded: substrate
